pIC50, pKi: −log10 of the molar value.
Tests used:
Acetylcholinesterase [1] = target: Acetylcholinesterase (Electrophorus electricus, UniProt O42275); assay: Inhibition of electric eel AChE using acetylthiocholine iodide as substrate preincubated for 20 mins followed by substrate addition and measured every minute for 10 mins by DTNB-reagent based Ellman's method
Cholinesterase [2] = target: T1, Cholinesterase (Equus caballus, UniProt P81908); assay: Inhibition of equine serum BChE using S-butyrylthiocholine iodide as substrate preincubated for 20 mins followed by substrate addition and measured every minute for 10 mins by DTNB-reagent based Ellman's method
T1 sequence (P81908 whole entry): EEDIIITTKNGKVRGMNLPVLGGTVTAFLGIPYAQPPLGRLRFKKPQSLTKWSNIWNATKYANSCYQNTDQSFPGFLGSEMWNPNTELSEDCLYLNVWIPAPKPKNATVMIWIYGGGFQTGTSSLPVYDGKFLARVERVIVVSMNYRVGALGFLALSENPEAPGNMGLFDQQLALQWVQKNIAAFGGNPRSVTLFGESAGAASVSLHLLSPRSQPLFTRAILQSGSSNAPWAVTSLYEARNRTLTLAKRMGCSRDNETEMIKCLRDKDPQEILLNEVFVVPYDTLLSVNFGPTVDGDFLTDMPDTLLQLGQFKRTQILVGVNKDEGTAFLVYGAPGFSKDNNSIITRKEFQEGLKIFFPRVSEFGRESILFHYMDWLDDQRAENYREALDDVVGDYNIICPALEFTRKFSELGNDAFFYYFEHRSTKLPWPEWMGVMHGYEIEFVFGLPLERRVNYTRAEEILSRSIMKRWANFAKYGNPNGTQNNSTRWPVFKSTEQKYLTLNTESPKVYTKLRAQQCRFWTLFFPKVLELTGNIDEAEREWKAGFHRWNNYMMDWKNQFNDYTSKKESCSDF

[3] = Effective permeability of compound by PAMPA-BBB assay; assay type: ADME; details: read-out: Peff
Acetylcholinesterase [4] = target: T2, Acetylcholinesterase (Homo sapiens, UniProt P22303); assay: Inhibition of recombinant human AChE
T2 sequence (P22303 whole entry): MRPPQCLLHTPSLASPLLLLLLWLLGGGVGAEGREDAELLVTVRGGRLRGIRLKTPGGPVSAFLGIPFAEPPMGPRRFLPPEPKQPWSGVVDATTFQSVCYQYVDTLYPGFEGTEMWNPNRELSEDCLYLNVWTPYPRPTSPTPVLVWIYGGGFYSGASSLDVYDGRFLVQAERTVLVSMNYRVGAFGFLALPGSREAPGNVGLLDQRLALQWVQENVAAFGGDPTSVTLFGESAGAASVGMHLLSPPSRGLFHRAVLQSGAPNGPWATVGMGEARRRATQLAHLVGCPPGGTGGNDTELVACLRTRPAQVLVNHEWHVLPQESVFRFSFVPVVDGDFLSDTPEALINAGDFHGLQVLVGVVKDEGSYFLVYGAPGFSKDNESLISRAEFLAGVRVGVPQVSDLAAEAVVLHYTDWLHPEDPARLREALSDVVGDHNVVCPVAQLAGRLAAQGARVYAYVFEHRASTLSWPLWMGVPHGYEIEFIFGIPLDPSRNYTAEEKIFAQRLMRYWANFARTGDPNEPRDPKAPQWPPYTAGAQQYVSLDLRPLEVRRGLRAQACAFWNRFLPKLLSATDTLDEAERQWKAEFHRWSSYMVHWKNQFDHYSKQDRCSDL

Acetylcholinesterase [5] = target: T2, Acetylcholinesterase; assay: Non-competitive inhibition of recombinant human AChE assessed as decrease in Vmax with constant Km using varying level of acetylthiocholine iodide as substrate preincubated for 20 mins followed by substrate addition and measured every minute for 10 mins by Lineweaver-Burk plot analysis
Cholinesterase [6] = target: T1, Cholinesterase; assay: Mixed type inhibition of equine serum BChE assessed as decrease in Vmax and increase in Km using varying level of S-butyrylthiocholine iodide as substrate preincubated for 20 mins followed by substrate addition and measured every minute for 10 mins by Lineweaver-Burk plot analysis
Rattus norvegicus = organism: Rattus norvegicus; assay: Inhibition of rat self-induced Amyloid beta (1 to 42 residues) aggregation at 10 uM incubated for 24 hrs by thioflavin-T fluorescence assay relative to control

Chain of Acetylcholinesterase (Electrophorus electricus, UniProt O42275) (O42275 whole entry): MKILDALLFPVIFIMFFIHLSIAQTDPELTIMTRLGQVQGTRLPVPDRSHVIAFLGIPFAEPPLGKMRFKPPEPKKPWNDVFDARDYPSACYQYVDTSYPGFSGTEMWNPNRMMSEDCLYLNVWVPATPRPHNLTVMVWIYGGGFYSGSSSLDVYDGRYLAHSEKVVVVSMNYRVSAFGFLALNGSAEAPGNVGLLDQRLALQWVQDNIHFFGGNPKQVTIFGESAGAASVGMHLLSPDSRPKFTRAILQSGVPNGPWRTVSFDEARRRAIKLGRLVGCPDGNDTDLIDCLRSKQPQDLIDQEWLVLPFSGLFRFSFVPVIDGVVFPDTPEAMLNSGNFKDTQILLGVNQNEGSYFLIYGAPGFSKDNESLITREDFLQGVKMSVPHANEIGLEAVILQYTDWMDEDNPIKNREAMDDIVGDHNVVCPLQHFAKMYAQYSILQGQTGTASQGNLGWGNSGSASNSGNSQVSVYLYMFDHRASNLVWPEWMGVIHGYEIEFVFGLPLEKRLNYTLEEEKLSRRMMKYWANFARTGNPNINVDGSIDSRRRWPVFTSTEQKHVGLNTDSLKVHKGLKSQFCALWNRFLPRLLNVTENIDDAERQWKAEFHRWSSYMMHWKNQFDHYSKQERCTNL

SMILES | pIC50 (Acetylcholinesterase [1]) | pIC50 (Cholinesterase [2]) | further results
O=C(Nc1cc[n+](Cc2ccccc2)cc1)c1ccc(OCc2ccccc2)cc1 | 6.44 | < 6.00 | 
COc1ccc(C(=O)Nc2cc[n+](Cc3ccccc3)cc2)cc1OC | 6.38 |  | 
COc1ccc2cc(C(=O)NCCc3cc[n+](Cc4ccccc4)cc3)ccc2c1.[Br-] | 6.11 | 6.17 | Papp [3]: 1.3 ×10⁻⁶ cm/s
COc1ccc(C(=O)Nc2cc[n+](Cc3ccccc3)cc2)cc1 | 6.67 |  | 
O=C(Nc1cc[n+](Cc2ccccc2)cc1)c1ccc(-c2ccccc2)cc1 | 6.11 | < 6.00 | 
COc1ccc2cc(C(=O)Nc3cc[n+](Cc4ccc(Cl)cc4)cc3)ccc2c1 | 6.05 | < 6.00 | 
COc1ccc2cc(C(=O)Nc3cc[n+](Cc4ccccc4)cc3)ccc2c1 | 6.66 | 5.80 | 
COc1ccc2cc(C(=O)NCCc3cc[n+](Cc4ccccc4Cl)cc3)ccc2c1 | 6.30 | 6.08 | 
COc1ccc2cc(C(=O)Nc3cc[n+](Cc4ccccc4Cl)cc3)ccc2c1 | 6.47 | < 6.00 | 
COc1ccc2cc(C(=O)NCCC3CCN(Cc4ccccc4)CC3)ccc2c1 |  |  | Papp [3]: 6.9 ×10⁻⁶ cm/s; pIC50 (Acetylcholinesterase [4]): 6.77; pKi (Acetylcholinesterase [5]): 6.68; pKi (Cholinesterase [6]): 6.82; inhibition (Rattus norvegicus): 25%
N#Cc1ccc(C(=O)Nc2cc[n+](Cc3ccccc3)cc2)cc1 | 6.33 |  | 
COc1ccc2cc(C(=O)NCCc3cc[n+](Cc4cccc(Cl)c4)cc3)ccc2c1 | 6.21 | < 6.00 | 
COc1ccc2cc(C(=O)NCCc3cc[n+](Cc4ccc([N+](=O)[O-])cc4)cc3)ccc2c1 | 6.13 | < 6.00 | 
CCOc1ccc(C(=O)Nc2cc[n+](Cc3ccccc3)cc2)cc1 | 6.70 | 4.90 | 
COc1ccc2cc(C(=O)NCCc3cc[n+](Cc4ccccc4C)cc3)ccc2c1 | 5.97 | < 6.00 | 
COc1ccc2cc(C(=O)NCCc3cc[n+](Cc4ccccc4F)cc3)ccc2c1 | 6.55 | < 6.00 | 
COc1ccc2cc(C(=O)Nc3cc[n+](Cc4ccc(F)cc4)cc3)ccc2c1 | 6.68 | < 6.00 | 
CC(C)c1ccc(C(=O)Nc2cc[n+](Cc3ccccc3)cc2)cc1 | 6.07 |  | 
COc1cc(OC)cc(C(=O)Nc2cc[n+](Cc3ccccc3)cc2)c1 | 6.69 |  | 
COc1ccc2cc(C(=O)NCCc3cc[n+](Cc4ccccc4[N+](=O)[O-])cc3)ccc2c1 | 6.55 | < 6.00 | 
COc1ccc2cc(C(=O)Nc3cc[n+](Cc4ccccc4[N+](=O)[O-])cc3)ccc2c1 | 6.32 | < 6.00 | 
COc1ccc2cc(C(=O)NCCc3cc[n+](Cc4ccc(F)cc4)cc3)ccc2c1 | 6.13 | < 6.00 | 
O=C(Nc1cc[n+](Cc2ccccc2)cc1)c1ccc2cc(Br)ccc2c1 | 5.84 |  | 
COc1ccc2cc(C(=O)Nc3cc[n+](Cc4ccccc4C)cc3)ccc2c1 | 6.36 | < 6.00 | 
COc1ccc2cc(C(=O)Nc3cc[n+](Cc4ccccc4F)cc3)ccc2c1 | 6.68 | < 6.00 | 

Reference: ChEMBL document CHEMBL4706581, “Discovery of methoxy-naphthyl linked N-(1-benzylpiperidine) benzamide as a blood-brain permeable dual inhibitor of acetylcholinesterase and butyrylcholinesterase” (Eur J Med Chem, 2020)
